This is an account of results in patent US12161607B2, “Combination of cannabinoids in the treatment of leukemia” (Jazz Pharmaceuticals Research UK Limited, priority 2017, dated 2024).

The structures appear in SMILES notation. Read-outs that look alike come from different tables or passages of the source.

For the test, the system named is HL60 cell line. The experiment in a line: Combination study, modulatory effect: IC50 of chemotherapy drug without and with cannabinoid-pair (72 h). The test is classed as cell-based. Conditions: Homo sapiens, HL-60, 72 h, HL60, 72 h, read-out: IC50 for percentage cell viability. The protocol:
FIG. 2. Sensitising chemotherapy action with low doses of cannabinoids. […] The effect of a low dose of CBD/THC or CBD/CBG on the activity of CYT and VIN was also assessed. IC50 values for percentage cell viability were determined by emax models.
Cytarabine (CYT), (Sigma) and vincristine (VIN), (Sigma) were reconstituted in PBS at a stock concentration of 10 mM, and kept at −20° C. for no more than four weeks.
The ability of cannabinoids to modify the efficacy CYT and VIN was studied by assessing and comparing the IC50 of the anti-leukaemia drugs in the absence and presence of the cannabinoids.
The cannabinoids tested were CBD+CBG and CBD+THC, and these were used at a single total sub-optimal concentration of 1 μM in CEM and 5 μM HL60.
Drugs were added (CYT and VIN over a range of concentrations) and cell number determined after 72 h.
The ability of a sub-effective concentration of cannabinoid to alter the efficacy of CYT or VIN was determined by comparing the IC50s of the chemotherapy agents in the absence or presence of the cannabinoid-pair.

Turning to `Nc1ccn([C@@H]2O[C@H](CO)[C@@H](O)[C@@H]2O)c(=O)n1` [cytarabine, Cytarabine], the IC50 – broadly, the point on the concentration scale where inhibition reaches its midpoint – stood at 150 nM (CBD+CBG added (sub-optimal total 5 μM in HL60)), 8 nM (CBD+THC added (sub-optimal total 5 μM in HL60)) and 100 nM (chemotherapy drug alone).
